According to patent US10399945B2, “Tetrahydronaphthyl urea derivative” (MOCHIDA PHARMACEUTICAL CO., LTD., priority 2017, dated 2019):

Biological target: Human TrkA Protein (Homo sapiens (Human), UniProt P04629)
Test: Evaluation of Binding Activity for Human TrkA Protein (TrkA LanthaScreen Eu Kinase Binding Assay)
Details: TrkA enzyme, Kinase Tracer 236, TR-FRET, 60 minutes at room temperature
Protocol: (Pharmacological Experimental Example 1): Evaluation of Binding Activity for Human TrkA Protein
Measurement was carried out using TrkA LanthaScreen (registered trademark) Eu Kinase Binding Assay (ThermoFisher SCIENTIFIC). To a 384 well plate (Corning), 2.5 μL of the test compound having various concentrations and diluted with Kinase buffer (ThermoFisher SCIENTIFIC) and 2.5 μL of 15 nM TrkA enzyme (ThermoFisher SCIENTIFIC) were added. Moreover, […] Eu-anti-His Tag antibody (ThermoFisher SCIENTIFIC) and 5 μL of 30 nM Kinase (registered trademark) Tracer 236 (ThermoFisher SCIENTIFIC) were added, followed by reaction at room temperature for 60 minutes. After the reaction, the fluorescence intensity of Europium (Emission wavelength 615 nm) and TR-FRET (Emission wavelength 665 nm) with an excitation wavelength of 340 nm were measured with EnVision 2100 (PerkinElmer) to calculate the fluorescence ratio as the amount of the test compound and the TrkA enzyme bonded. The inhibitory activity (IC50 value) of each test compound was calculated with the fluorescence ratio of the well to which a solvent was added instead of the test compound being 0% and the fluorescence ratio of the well without addition of the TrkA protein being 100%.
In Table 1, […] mean Compounds 1 to 62 synthesized in accordance with Examples 1 to 62 described later.

Human TrkA Protein, sequence (P04629 33-796): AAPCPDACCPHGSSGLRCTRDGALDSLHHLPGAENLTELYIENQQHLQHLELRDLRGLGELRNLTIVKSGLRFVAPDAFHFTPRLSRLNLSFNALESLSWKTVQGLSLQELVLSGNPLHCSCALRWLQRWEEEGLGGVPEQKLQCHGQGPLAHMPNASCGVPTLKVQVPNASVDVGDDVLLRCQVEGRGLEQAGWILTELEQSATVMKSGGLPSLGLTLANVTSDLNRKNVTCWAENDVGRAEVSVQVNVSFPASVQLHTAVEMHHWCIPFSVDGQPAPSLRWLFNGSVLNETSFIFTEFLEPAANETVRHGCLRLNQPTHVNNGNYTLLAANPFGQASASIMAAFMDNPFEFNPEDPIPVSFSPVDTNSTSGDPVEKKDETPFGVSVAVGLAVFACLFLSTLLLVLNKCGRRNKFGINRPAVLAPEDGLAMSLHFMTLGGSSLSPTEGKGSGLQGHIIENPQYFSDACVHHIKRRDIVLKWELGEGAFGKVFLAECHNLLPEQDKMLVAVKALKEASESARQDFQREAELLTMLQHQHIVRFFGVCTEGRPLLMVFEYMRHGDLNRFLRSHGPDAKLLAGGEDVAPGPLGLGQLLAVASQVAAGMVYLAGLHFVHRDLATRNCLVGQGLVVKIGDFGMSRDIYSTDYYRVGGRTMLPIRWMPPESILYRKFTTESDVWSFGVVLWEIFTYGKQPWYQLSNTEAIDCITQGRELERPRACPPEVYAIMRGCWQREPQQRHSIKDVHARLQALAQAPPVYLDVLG

Row | IC50 | Structure (SMILES)
1 | ≤ 50 nM | CC1(C)C[C@@H](O)[C@H](NC(=O)Nc2cccnc2-c2ccccc2)c2ccccc21 (racemic) [Compound 1, rac-1-((1R,2R)-2-hydroxy-4,4-dimethyl-1,2,3,4-tetrahydronaphthalen-1-yl)-3-(2-phenylpyridin-3-yl)urea]
2 | ≤ 50 nM | Cc1cnc(-c2ccccc2)c(NC(=O)N[C@@H]2c3ccccc3C(C)(C)C[C@H]2O)c1 (racemic) [Compound 2, rac-1-((1R,2R)-2-hydroxy-4,4-dimethyl-1,2,3,4-tetrahydronaphthalen-1-yl)-3-(5-methyl-2-phenylpyridin-3-yl)urea]
3 | ≤ 50 nM | Cc1ncc(-c2nc(-c3ccccc3)c(NC(=O)N[C@@H]3c4ccccc4C(C)(C)C[C@H]3O)cc2C)cn1 (racemic) [Compound 3, rac-1-((1R,2R)-2-hydroxy-4,4-dimethyl-1,2,3,4-tetrahydronaphthalen-1-yl)-3-(5-methyl-6-(2-methylpyrimidin-5-yl)-2-phenylpyridin-3-yl)urea]
4 | ≤ 50 nM | Cc1cc(NC(=O)N[C@@H]2c3ccccc3C(C)(C)C[C@H]2O)c(-c2ccccc2)nc1-c1cnn(C)c1 (racemic) [Compound 4, rac-1-((1R,2R)-2-hydroxy-4,4-dimethyl-1,2,3,4-tetrahydronaphthalen-1-yl)-3-(5-methyl-6-(1-methyl-1H-pyrazol-4-yl)-2-phenylpyridin-3-yl)urea]
5 | ≤ 50 nM | Cc1cc(NC(=O)N[C@@H]2c3ccccc3C(C)(C)C[C@H]2O)c(-c2ccccc2)nc1-c1cn[nH]c1 (racemic) [Compound 5, rac-1-((1R,2R)-2-hydroxy-4,4-dimethyl-1,2,3,4-tetrahydronaphthalen-1-yl)-3-(5-methyl-6-(1H-pyrazol-4-yl)-2-phenylpyridin-3-yl)urea]
6 | ≤ 50 nM | Cc1cc(NC(=O)N[C@@H]2c3ccccc3C(C)(C)C[C@H]2O)c(-c2ccccc2)nc1-c1ccc(O)nc1 (racemic) [Compound 6, rac-1-(6′-hydroxy-3-methyl-6-phenyl-[2,3′-bipyridin]-5-yl)-3-((1R,2R)-2-hydroxy-4,4-dimethyl-1,2,3,4-tetrahydronaphthalen-1-yl)urea]
7 | ≤ 50 nM | Cc1cnc(-c2ccccc2)c(NC(=O)N[C@@H]2c3ccc(Br)cc3C(C)(C)C[C@H]2O)c1 (racemic) [Compound 22, rac-1-((1R,2R)-6-bromo-2-hydroxy-4,4-dimethyl-1,2,3,4-tetrahydronaphthalen-1-yl)-3-(5-methyl-2-phenylpyridin-3-yl)urea]
8 | ≤ 50 nM | Cc1cc(NC(=O)N[C@@H]2c3ccc(Br)cc3C(C)(C)C[C@H]2O)c(-c2ccccc2)nc1C(N)=O (racemic) [Compound 23, rac-5-(3-((1R,2R)-6-bromo-2-hydroxy-4,4-dimethyl-1,2,3,4-tetrahydronaphthalen-1-yl)ureido)-3-methyl-6-phenylpicolinamide]
9 | ≤ 50 nM | Cc1cc(NC(=O)N[C@@H]2c3ccccc3C(C)(C)C[C@H]2O)c(-c2ccccc2)nc1C(N)=O (racemic) [Compound 24, rac-5-(3-((1R,2R)-2-hydroxy-4,4-dimethyl-1,2,3,4-tetrahydronaphthalen-1-yl)ureido)-3-methyl-6-phenylpicolinamide]
10 | ≤ 50 nM | Cc1cc(NC(=O)N[C@@H]2c3ccccc3C(C)(C)C[C@H]2O)c(-c2ccccc2)nc1C(=O)NCC(C)(C)O (racemic) [Compound 25, rac-N-(2-hydroxy-2-methylpropyl)-5-(3-((1R,2R)-2-hydroxy-4,4-dimethyl-1,2,3,4-tetrahydronaphthalen-1-yl)ureido)-3-methyl-6-phenylpicolinamide]
11 | ≤ 50 nM | Cc1cnc(C2CCOCC2)c(NC(=O)N[C@@H]2c3ccccc3C(C)(C)C[C@H]2O)c1 (racemic) [Compound 26, rac-1-((1R,2R)-2-hydroxy-4,4-dimethyl-1,2,3,4-tetrahydronaphthalen-1-yl)-3-(5-methyl-2-(tetrahydro-2H-pyran-4-yl)pyridin-3-yl)urea]
12 | 50 to 1000 nM | Cc1cc(NC(=O)N[C@@H]2c3ccccc3C(C)(C)C[C@H]2O)c(C2CCOCC2)nc1C(N)=O (racemic) [Compound 27, rac-5-(3-((1R,2R)-2-hydroxy-4,4-dimethyl-1,2,3,4-tetrahydronaphthalen-1-yl)ureido)-3-methyl-6-(tetrahydro-2H-pyran-4-yl)picolinamide]
13 | ≤ 50 nM | Cc1ncc(-c2nc(C3CCOCC3)c(NC(=O)N[C@@H]3c4ccccc4C(C)(C)C[C@H]3O)cc2C)cn1 (racemic) [Compound 28, rac-1-((1R,2R)-2-hydroxy-4,4-dimethyl-1,2,3,4-tetrahydronaphthalen-1-yl)-3-(5-methyl-6-(2-methylpyrimidin-5-yl)-2-(tetrahydro-2H-pyran-4-yl)pyridin-3-yl)urea]
14 | ≤ 50 nM | Cc1cc(NC(=O)N[C@@H]2c3ccccc3C(C)(C)C[C@H]2O)c(C2CCOCC2)nc1-c1cnn(C)c1 (racemic) [Compound 29, rac-1-((1R,2R)-2-hydroxy-4,4-dimethyl-1,2,3,4-tetrahydronaphthalen-1-yl)-3-(5-methyl-6-(1-methyl-1H-pyrazol-4-yl)-2-(tetrahydro-2H-pyran-4-yl)pyridin-3-yl)urea]
15 | ≤ 50 nM | Cc1cc(NC(=O)N[C@@H]2c3ccccc3C(C)(C)C[C@H]2O)c(C2CCOCC2)nc1-c1cn[nH]c1 (racemic) [Compound 30, rac-1-((1R,2R)-2-hydroxy-4,4-dimethyl-1,2,3,4-tetrahydronaphthalen-1-yl)-3-(5-methyl-6-(1H-pyrazol-4-yl)-2-(tetrahydro-2H-pyran-4-yl)pyridin-3-yl)urea]
16 | ≤ 50 nM | Cc1cc(NC(=O)N[C@@H]2c3ccccc3C(C)(C)C[C@H]2O)c(C2CCOCC2)nc1-c1ccc(O)nc1 (racemic) [Compound 31, rac-1-(6′-hydroxy-3-methyl-6-(tetrahydro-2H-pyran-4-yl)-[2,3′-bipyridin]-5-yl)-3-((1R,2R)-2-hydroxy-4,4-dimethyl-1,2,3,4-tetrahydronaphthalen-1-yl)urea]
17 | ≤ 50 nM | Cc1cnc(-c2ccccc2)c(NC(=O)N[C@@H]2c3cc(Br)ccc3C(C)(C)C[C@H]2O)c1 (racemic) [Compound 32, rac-1-((1R,2R)-7-bromo-2-hydroxy-4,4-dimethyl-1,2,3,4-tetrahydronaphthalen-1-yl)-3-(5-methyl-2-phenylpyridin-3-yl)urea]
18 | ≤ 50 nM | COCc1ccc2c(c1)[C@@H](NC(=O)Nc1cc(C)cnc1C1CCOCC1)[C@H](O)CC2(C)C (racemic) [Compound 33, rac-1-((1R,2R)-2-hydroxy-7-(methoxymethyl)-4,4-dimethyl-1,2,3,4-tetrahydronaphthalen-1-yl)-3-(5-methyl-2-(tetrahydro-2H-pyran-4-yl)pyridin-3-yl)urea]
19 | ≤ 50 nM | Cc1ncc(-c2nc(-c3ccccc3)c(NC(=O)N[C@@H]3c4cc(F)ccc4C(C)(C)C[C@H]3O)cc2C)cn1 (racemic) [Compound 34a]
20 | ≤ 50 nM | Cc1ncc(-c2nc(-c3ccccc3)c(NC(=O)N[C@@H]3c4ccc(F)cc4C(C)(C)C[C@H]3O)cc2C)cn1 (racemic) [Compound 35a]
21 | ≤ 50 nM | CC1(C)C[C@@H](O)[C@H](NC(=O)Nc2cccnc2-c2ccccc2)c2cc(F)c(F)cc21 (racemic) [Compound 36, rac-1-((1R,2R)-6,7-difluoro-2-hydroxy-4,4-dimethyl-1,2,3,4-tetrahydronaphthalen-1-yl)-3-(2-phenylpyridin-3-yl)urea]
22 | ≤ 50 nM | Cc1cnc(-c2ccccc2)c(NC(=O)N[C@@H]2c3cc(F)c(F)cc3C(C)(C)C[C@H]2O)c1 (racemic) [Compound 37, rac-1-((1R,2R)-6,7-difluoro-2-hydroxy-4,4-dimethyl-1,2,3,4-tetrahydronaphthalen-1-yl)-3-(5-methyl-2-phenylpyridin-3-yl)urea]
23 | ≤ 50 nM | Cc1cnc(-c2ccccc2)c(NC(=O)N[C@@H]2c3cc(F)c(F)cc3C(C)(C)C[C@H]2O)c1 (racemic) [Compound 37a]
24 | 50 to 1000 nM | Cc1ccnc(-c2ccccc2)c1NC(=O)N[C@@H]1c2cc(F)c(F)cc2C(C)(C)C[C@H]1O (racemic) [Compound 38, rac-1-((1R,2R)-6,7-difluoro-2-hydroxy-4,4-dimethyl-1,2,3,4-tetrahydronaphthalen-1-yl)-3-(4-methyl-2-phenylpyridin-3-yl)urea]
25 | ≤ 50 nM | Cc1ccc(NC(=O)N[C@@H]2c3cc(F)c(F)cc3C(C)(C)C[C@H]2O)c(-c2ccccc2)n1 (racemic) [Compound 39, rac-1-((1R,2R)-6,7-difluoro-2-hydroxy-4,4-dimethyl-1,2,3,4-tetrahydronaphthalen-1-yl)-3-(6-methyl-2-phenylpyridin-3-yl)urea]
26 | ≤ 50 nM | Cc1cc(NC(=O)N[C@@H]2c3cc(F)c(F)cc3C(C)(C)C[C@H]2O)c(-c2ccccc2)nc1C(N)=O (racemic) [Compound 40, rac-5-(3-((1R,2R)-6,7-difluoro-2-hydroxy-4,4-dimethyl-1,2,3,4-tetrahydronaphthalen-1-yl)ureido)-3-methyl-6-phenylpicolinamide]
27 | ≤ 50 nM | Cc1nnc(CNC(=O)c2nc(-c3ccccc3)c(NC(=O)N[C@@H]3c4cc(F)c(F)cc4C(C)(C)C[C@H]3O)cc2C)o1 (racemic) [Compound 41, rac-5-(3-((1R,2R)-6,7-difluoro-2-hydroxy-4,4-dimethyl-1,2,3,4-tetrahydronaphthalen-1-yl)ureido)-3-methyl-N-((5-methyl-1,3,4-oxadiazol-2-yl)methyl)-6-phenylpicolinamide]
